Data: US20250122202A1, “EGFR INHIBITOR, PREPARATION METHOD THEREFOR AND USE THEREOF” (SHANDONG NEW TIME PHARMACEUTICAL CO., LTD., priority 2021, published 2025)

Assays:
[1] = target: EGFR-Del19/T790M/C797S kinase (Homo sapiens, UniProt P00533, C797S/T790M, form not given); experiment: In-vitro enzyme experiment 2 (HTRF kinase assay), EGFR Del19 T790M C797S; type: biochemical; details: read-out: enzyme inhibition IC50 (nM) EGFR-Del19/T790M/C797S
Method: The specific experiment was as follows: • 1. […] Test method of activity of compound • a) a compound diluent was transferred to each well of an assay plate (784075, Greiner) using Echo 550; • b) the assay plate was sealed and centrifuged at 1,000 g for 1 min; • c) 2×EGFR (D770-N771 ins NPG T790M) was prepared in a 1× kinase buffer; • d) 5 μl of the 2×EGFR (D770-N771 ins NPG T790M) was added to a 384-well assay plate (784075, Greiner); • e) the assay plate was centrifuged at 1,000 g for 30 s and incubated at room temperature for 10 min; • f) 2× TK-substrate-biotin (2 μM) and ATP were added to the 1× kinase buffer and mixed; • g) the reaction was started after adding 5 μl of the TK-substrate-biotin (2 μM) and ATP mixture; • h) the assay plate was centrifuged at 1,000 g for 30 s; and the assay plate was sealed and incubated at room temperature for 40 min; • i) 4× Sa-XL 665 was prepared in an HTRF detection buffer; • j) 5 μl of the Sa-XL 665 and 5 μl of a TK-antibody-cryptate were added to each well of the assay plate; • k) the assay plate was centrifuged at 1,000 g for 30 s and incubated at room temperature for 1 h; and • l) fluorescence signals at 615 nm (cryptate) and 665 nm (XL665) were read on an Envision 2104 reader. • 3. Data analysis • 3.1 Calculation of ratio (665/615 nm) of each well • 3.2 Calculation of inhibition rate
[formula] • 3.3 Calculation of IC50 value of compound and drawing dose-effect curve of compound • IC50 values were calculated using GraphPad 6.0 by applying a non-linear regression curve (dose-effect relationship-variable slope) of the logarithm of the compound concentration versus the inhibition rate.
The preparation of the kinase buffer, the test method of the activity of the compound, and the data analysis referred to the relevant definitions in example 117, wherein step c) of the test method of the activity of the compound was replaced by preparing 2×EGFR Del19 T790M C797S in the 1× kinase buffer.

[2] = tested on: KC-1474 cell subcutaneous transplantation tumor; experiment: In-vivo drug efficacy study, KC-1474 cell subcutaneous transplantation tumor in NPG mice; details: for tumor volume inhibition rate (TGITV) / tumor weight inhibition rate (TGITW): 39 days, end of experiment
Method: Female SPF NPG mice weighed 19-22 g were used. The experimental animals were provided by Beijing Vitalstar Biotechnology Co., Ltd. with the experimental animal production license number SCXK (Jing) 2019-0002 and the experimental animal quality certification number of No.110341211100087928.
KC-1474 cells used in the experiment were cultured in a 5% CO2 37° C. incubator with an RPMI1640 medium supplemented with 10% FBS and […] of puromycin. Before the cells were continuously cultured for ten passages, the KC-1474 cells were adjusted to a concentration of 1×10^8/mL, and mixed with Matrigel at a volume ratio of 1:1, and the mixture was inoculated subcutaneously into the right lateral thorax of the NPG mice at 0.1 mL/mouse with 5×10^6 cells per mouse.
When the mean tumor volume of the mice reached about 100-130 mm^3, according to the tumor volume and weight, all the mice were randomly divided into […] group respectively: a model group (V), an example 60 compound oral administration group (po), an example 60 compound intravenous injection low-dose group (L), and an example 60 compound intravenous injection medium-dose group (M). The mice in all the groups were administrated once daily. The administration started on the day of the grouping and continued for 39 days. The mice in the model group were intravenously injected with the same volume of a solvent. The solvent was prepared by adding 2 g of polyethylene glycol-15 hydroxystearate (HS15) into 4 mL of dimethyl sulfoxide (DMSO), then adding 40 mL of purified water, and filtering an obtained mixture by using a 0.22-μm sterilizing filter. At the end of the experiment or the humane endpoint, the animals were euthanized using sodium pentobarbital for anesthesia.
Tumor volume was measured once during the grouping, once per week after the grouping using a vernier caliper, and before the euthanasia. A method for measuring the tumor volume was measuring the long diameter and the short diameter of a tumor using the vernier caliper.
The tumor volume was calculated by the formula: tumor volume=0.5×long diameter×short diameter^2.
(Ti: mean tumor volume of mice in the treatment groups on day i of the administration and T0: mean tumor volume of the mice in the treatment group on day 0 of the administration; and Vi: mean tumor volume of the mice in the model group on day i of the administration and V0: mean tumor volume of the mice in the model group on day 0 of the administration).
At the end of the experiment, the tumor tissue was stripped after the animals were euthanized, the tumor weight was weighed, and the tumor weight inhibition rate was calculated according to the following formula:
TGITW(%)=(Wmodel group−Wtreatment group)/Wmodel group×100%, wherein the W means tumor weight.
Original data was analyzed and the results were expressed as mean±standard deviation (mean±SD). At the same time, the tumor volume and the tumor weight were subjected to statistical analysis. AP<0.05 was considered to be a significant difference.

[3] = tested on: KC-1474:PC-9 EGFR-Del19/T790M/C797S; experiment: Cell proliferation inhibition experiment (CCK-8), KC-1474; type: cell-based; details: Homo sapiens, 72 h
Excerpt: Inhibition rate %=[(A0−AS)/(A0−AC)]×100%.

Chain of EGFR-Del19/T790M/C797S kinase (P00533 25-1210 T790M/C797S limits assumed, form open): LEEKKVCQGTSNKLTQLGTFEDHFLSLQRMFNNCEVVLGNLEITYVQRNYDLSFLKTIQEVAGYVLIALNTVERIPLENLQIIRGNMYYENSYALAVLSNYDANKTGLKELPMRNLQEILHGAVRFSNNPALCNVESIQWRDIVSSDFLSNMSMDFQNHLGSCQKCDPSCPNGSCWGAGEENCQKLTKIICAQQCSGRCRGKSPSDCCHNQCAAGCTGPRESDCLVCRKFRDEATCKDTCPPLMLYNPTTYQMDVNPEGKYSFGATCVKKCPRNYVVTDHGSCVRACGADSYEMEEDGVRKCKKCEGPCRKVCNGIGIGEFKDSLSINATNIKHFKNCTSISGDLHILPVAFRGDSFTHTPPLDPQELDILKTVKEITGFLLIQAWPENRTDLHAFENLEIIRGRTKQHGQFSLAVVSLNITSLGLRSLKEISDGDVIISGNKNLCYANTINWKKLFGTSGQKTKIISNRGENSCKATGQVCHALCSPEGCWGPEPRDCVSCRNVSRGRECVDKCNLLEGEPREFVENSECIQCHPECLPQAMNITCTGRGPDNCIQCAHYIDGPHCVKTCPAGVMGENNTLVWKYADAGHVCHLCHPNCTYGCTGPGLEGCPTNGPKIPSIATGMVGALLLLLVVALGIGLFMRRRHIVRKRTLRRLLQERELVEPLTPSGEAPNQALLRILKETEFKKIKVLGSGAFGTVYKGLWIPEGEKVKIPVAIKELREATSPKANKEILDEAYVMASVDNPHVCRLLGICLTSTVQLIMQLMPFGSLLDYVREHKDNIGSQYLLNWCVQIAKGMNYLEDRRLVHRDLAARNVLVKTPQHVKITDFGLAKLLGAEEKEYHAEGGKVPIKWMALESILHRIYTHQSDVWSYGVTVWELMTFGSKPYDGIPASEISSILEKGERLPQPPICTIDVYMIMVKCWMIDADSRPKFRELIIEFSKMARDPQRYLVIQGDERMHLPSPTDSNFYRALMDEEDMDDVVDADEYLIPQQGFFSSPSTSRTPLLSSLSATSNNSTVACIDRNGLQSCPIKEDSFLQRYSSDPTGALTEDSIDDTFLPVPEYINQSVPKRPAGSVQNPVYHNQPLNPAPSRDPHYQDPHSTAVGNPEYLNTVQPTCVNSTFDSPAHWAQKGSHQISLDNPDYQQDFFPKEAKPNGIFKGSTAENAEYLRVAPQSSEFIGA

## CN1CCN(c2ccc(Nc3nc(N[C@H]4CC[C@@H](CO)CC4)c4c(C(=O)c5ccc(F)cc5)c[nH]c4n3)cc2)CC1 [Example 60]
[1]
  IC50: < 10 nM
[2]; L group, 3 mg/kg qd iv
  tumor volume inhibition rate (TGITV): 31%
  tumor weight inhibition rate (TGITW): 22%
[2]; M group, 10 mg/kg qd iv
  tumor volume inhibition rate (TGITV): 57%
  tumor weight inhibition rate (TGITW): 61%
[2]; all groups, qd for 39 days
  animal condition during the administration and observation: no diarrhea, vomiting, or rash
[2]; po group, 20 mg/kg qd po
  tumor volume inhibition rate (TGITV): 28%
  tumor weight inhibition rate (TGITW): 21%
[3]
  IC50: < 0.1 µM
